Experimental data: patent US20230134986A1, “GLUCOSE TRIPTOLIDE CONJUGATES AND USES THEREOF” (The Johns Hopkins University, priority 2020, published 2023)
Like-named read-outs stand apart in the source and are kept apart here.

Tests used:
Assay type in all cases: cell-based
Mammary Epithelial cell = assay: XTT viability assay, mammary epithelial cells; settings: Homo sapiens, Primary normal cells
Source text: (§1) Cells and culture conditions. Primary astrocytes (Lonza, Walkersville, Md.; ABM™ Basal Media with AGM™ SingleQuots™ Supplement Pack), fibroblast (ATCC; Fibroblast Basal Medium (ATCC© PCS-201-030™) with Fibroblast Growth Kit-Serum-free (ATCC© PCS-201-040™)), airway epithelial cell (ATCC; Airway Epithelial Cell Basal Medium (ATCC© PCS-300-030™) with Bronchial Epithelial Cell Growth Kit (ATCC© PCS-300-040™)), renal proximal tubule (ATCC; Renal Epithelial Cell Basal Medium (ATCC© PCS-400-030™) with Renal Epithelial Cell Growth Kit (ATCC© PCS-400-040™)), prostate epithelial cell (Lonza; PrEGM™ BulletKit™) and mammary epithelial cell (Lonza; MEBM™ BulletKit™) were kept in a humidified incubator at 37° C. adjusted to 5% CO2. […]
(§2) XTT assay. […] Cell viability was measured using the R&D Systemsm TACS XTT Cell Proliferation/Viability Assay (R&D Systems, Minneapolis, Minn.).

BxPC3 = assay: XTT viability assay, BxPC3; settings: Homo sapiens, BXPC-3, Pancreatic Cancer
Source text: as §1, §2

HUVEC = assay: XTT viability assay, HUVEC; settings: Homo sapiens, Primary normal cells
SNU-475 = assay: XTT viability assay, SNU-475; settings: Homo sapiens; Liver Cancer, SNU-475, XTT
Source text: as §1, §2

Airway Epithelial cell = assay: XTT viability assay, airway epithelial cells; settings: Homo sapiens, Primary normal cells
Source text: as §1, §2

SK-Mel-1 = assay: XTT viability assay, SK-Mel-1; settings: Homo sapiens; Melanoma, SK-Mel-1, XTT
Source text: as §1, §2

SNU-387 = assay: XTT viability assay, SNU-387; settings: Homo sapiens; Liver Cancer, SNU-387, XTT
Source text: as §1, §2

Fibroblast = assay: XTT viability assay, primary fibroblasts; settings: Homo sapiens, Primary normal cells
Source text: as §1, §2

RPMI-7951 = assay: XTT viability assay, RPMI-7951; settings: Homo sapiens; Melanoma, RPMI-7951, XTT
Source text: as §1, §2

SK-HEP-1 = assay: XTT viability assay, SK-HEP-1; settings: Homo sapiens, SK-HEP1; Liver Cancer, SK-HEP-1, XTT
Source text: as §1, §2

A549 = assay: XTT viability assay, A549; settings: Homo sapiens, Lung Cancer
Source text: as §1, §2

SK-Mel-3 = assay: XTT viability assay, SK-Mel-3; settings: Homo sapiens, SK-MEL3; Melanoma, SK-Mel-3, XTT
Source text: as §1, §2

Astrocyte = assay: XTT viability assay, primary astrocytes; settings: Homo sapiens, Primary normal cells
Source text: as §1, §2

SW1990 = assay: XTT viability assay, SW1990; settings: Homo sapiens, Pancreatic Cancer
Source text: as §1, §2

Prostate Epithelial cell = assay: XTT viability assay, prostate epithelial cells; settings: Homo sapiens, Primary normal cells
Source text: as §1, §2

Renal Proximal Tubule = assay: XTT viability assay, renal proximal tubule cells; settings: Homo sapiens, Primary normal cells
Source text: as §1, §2

CfPAC-1 = assay: XTT viability assay, CfPAC-1; settings: Homo sapiens; Pancreatic Cancer, CfPAC-1, XTT
Source text: as §1, §2

Detroit 562 = assay: XTT viability assay, Detroit 562; settings: Homo sapiens; Head and Neck Cancer, Detroit 562, XTT
Source text: as §1, §2

DU-145 = assay: XTT viability assay, DU-145; settings: Homo sapiens; Prostate Cancer, DU-145, XTT
Source text: as §1, §2

Cancer cell lines = assay: XTT viability assay, panel of cancer cell lines (means and ranges); settings: Homo sapiens
Source text: (§3) Cells and culture conditions. Primary astrocytes (Lonza, Walkersville, Md.; ABM™ Basal Media with AGM™ SingleQuots™ Supplement Pack), fibroblast (ATCC; Fibroblast Basal Medium (ATCC© PCS-201-030™) with Fibroblast Growth Kit-Serum-free (ATCC© PCS-201-040™)), airway epithelial cell (ATCC; Airway Epithelial Cell Basal Medium (ATCC© PCS-300-030™) with Bronchial Epithelial Cell Growth Kit (ATCC© PCS-300-040™)), renal proximal tubule (ATCC; Renal Epithelial Cell Basal Medium (ATCC© PCS-400-030™) with Renal Epithelial Cell Growth Kit (ATCC© PCS-400-040™)), prostate epithelial cell (Lonza; PrEGM™ BulletKit™) and mammary epithelial cell (Lonza; MEBM™ BulletKit™) were kept in a humidified incubator at 37° C. adjusted to 5% CO2. Prostate (PC3, LNCaP, DU-145), breast (MDA-MB-231, MDA-MB-453, SK-BR-3), head and neck (A253, Detroit 562, SCC-25), melanoma (SK-Mel-3, SK-Mel-1, RPMI-7951), pancreatic (CfPAC-1, BxPC3, SW1990), lung (A549, NCI-H1299, NCI-H1437) and liver (SNU-475, SK-HEP-1, SNU-387) cancer cell lines were obtained from ATCC and cultured in their respective media (prostate cells: RPMI-1640, MDA-MB-231: RPMI-1640, MDA-MB-453: Leibovitz's L-15, SK-BR-3: McCoy's 5a, A253: McCoy's 5a, Detroit 562: EMEM, SCC-25: DMEM, SK-Mel-3: McCoy's 5a, SK-Mel-1: EMEM, RPMI-7951: EMEM), CfPAC-1: IMDM, BxPC3: RPMI-1640, SW1990: Leibovitz's L-15), A549: F-12K, NCI-H1299: RPMI-1640, NCI-H1437: RPMI-1640, SNU-475: RPMI-1640, SK-HEP-1: EMEM, SNU-387: RPMI-1640. All media were supplemented with 10% (vol/vol) filtered fetal bovine serum (FBS, Invitrogen, Carlsbad, Calif.), 1% penicillin/streptomycin (Invitrogen) and maintained in a humidified incubator at 37° C. with 5% CO2 except for MDA-MB-453 and SW1990 grown at 37° C. without CO2 control. Wild type (ATCC) and C342T XPB knock-in cells (named T7115) of Human Embryonic Kidney 293T (HEK293T), HeLa (ATCC) were cultured in DMEM (GIBCO) with 10% (vol/vol) filtered fetal bovine serum (FBS, Invitrogen, Carlsbad, Calif.), 1% penicillin/streptomycin (Invitrogen).
(§4) XTT assay. Five thousand cells/well were plated on flat-bottom, transparent 96-well plate in a full growth media and incubated at appropriate culture conditions. Twenty four hours after seeding, cells were treated with indicated drugs and incubated for 47 hrs. Cell viability was measured using the R&D Systemsm TACS XTT Cell Proliferation/Viability Assay (R&D Systems, Minneapolis, Minn.).

SK-BR-3 = assay: XTT viability assay, SK-BR-3; settings: Homo sapiens; Breast Cancer, SK-BR-3, XTT
Source text: as §1, §2

primary human cells = assay: XTT viability assay, panel of primary non-malignant cells (means and ranges)
Source text: as §3, §4

SCC-25 = assay: XTT viability assay, SCC-25; settings: Homo sapiens; Head and Neck Cancer, SCC-25, XTT
Source text: as §1, §2

A253 = assay: XTT viability assay, A253; settings: Homo sapiens, Head and Neck Cancer
Source text: as §1, §2

[1] = Cancer cell lines (n = 21), read-out: mean IC50 by cell type
[2] = Less sensitive lines (n = 13), IC50 ≥ 1 μM, read-out: mean IC50 by cell type
[3] = Sensitive lines (n = 8), IC50 < 1 μM, read-out: mean IC50 by cell type
[4] = Non-malignant cells, read-out: mean IC50 by cell type
[5] = cell viability, panel of normal primary cells, read-out: range of IC50 values for primary cells

Work on `CC(C)[C@]12O[C@H]1[C@@H]1O[C@]13[C@]1(O[C@H]1C[C@H]1C4=C(CC[C@@]13C)C(=O)OC4)[C@@H]2OC(=O)CCC(=O)O[C@@H]1OC(CO)[C@@H](O)C(O)C1O` (stereo partly shown) [Compound 10] yielded an IC50 (Mammary Epithelial cell) of 2.56 ± 0.29 µM, an IC50 (BxPC3) of 4.15 ± 0.18 µM and an IC50 (HUVEC) of 1.37 ± 0.73 µM. The IC50 (SNU-475) was 3.85 ± 3.26 µM, the IC50 (Airway Epithelial cell) was 4.12 ± 1.39 µM and the IC50 (SK-Mel-1) was 1.29 µM. The IC50 (SNU-387) was 15.5 ± 9.28 µM, the IC50 (Fibroblast) was 5.64 ± 1.28 µM and the IC50 (RPMI-7951) was 2.67 ± 1.34 µM. For the same compound, the IC50 (SK-HEP-1) was 3.38 ± 0.71 µM, the IC50 (A549) was 1.7 ± 0.79 µM and the IC50 (SK-Mel-3) was 0.42 ± 0.34 µM. It also gave an IC50 (Astrocyte) of 5.31 ± 4.29 µM, an IC50 (SW1990) of 1.52 ± 0.33 µM and an IC50 (Prostate Epithelial cell) of 5.27 ± 2.29 µM. It also gave an IC50 (Renal Proximal Tubule) of 4.83 ± 1.54 µM, an IC50 (CfPAC-1) of 0.51 ± 0.35 µM and an IC50 (Detroit 562) of 1.42 ± 0.83 µM. The IC50 (DU-145) was 0.4 ± 0.13 µM, the IC50 (Cancer cell lines; [1]) was 2.42 ± 2 µM and the IC50 (Cancer cell lines; [2]) was 3.7 ± 2.33 µM. For the same compound, the IC50 (Cancer cell lines; [3]) was 0.49 µM, the IC50 (SK-BR-3) was 1.3 µM and the IC50 (primary human cells; [4]) was 4.16 ± 0.93 µM. For the same compound, the IC50 (primary human cells; [5]) was 1.37 to 5.6 µM, the IC50 (SCC-25) was 1.26 ± 0.99 µM and the IC50 (A253) was 0.71 ± 0.47 µM.

With `CC(C)[C@]12O[C@H]1[C@@H]1O[C@]13[C@]1(O[C@H]1C[C@H]1C4=C(CC[C@@]13C)C(=O)OC4)[C@@H]2OC(=O)CCCO[C@@H]1OC(CO)[C@@H](O)C(O)C1O` (stereo in doubt) [Compound 1] the IC50 (Mammary Epithelial cell) was 4.31 ± 1.03 µM, the IC50 (BxPC3) was 5 ± 2.83 µM and the IC50 (HUVEC) was 3.98 ± 1.15 µM. The IC50 (SNU-475) was 4.6 ± 4.55 µM, the IC50 (Airway Epithelial cell) was 7.13 ± 2.84 µM and the IC50 (SK-Mel-1) was 3.44 µM. It also gave an IC50 (SNU-387) of 24.4 ± 8.9 µM, an IC50 (Fibroblast) of 10.6 ± 1.22 µM and an IC50 (RPMI-7951) of 5.95 ± 2.45 µM. The IC50 (SK-HEP-1) was 5.9 ± 0.28 µM, the IC50 (A549) was 2.72 ± 1.41 µM and the IC50 (SK-Mel-3) was 0.44 ± 0.25 µM. It also gave an IC50 (Astrocyte) of 10.9 ± 9.66 µM, an IC50 (SW1990) of 6.48 ± 2.79 µM and an IC50 (Prostate Epithelial cell) of 4.72 ± 3.48 µM. The IC50 (Renal Proximal Tubule) was 5.94 ± 2.21 µM, the IC50 (CfPAC-1) was 0.47 ± 0.32 µM and the IC50 (Detroit 562) was 1.24 ± 0.61 µM. The IC50 (DU-145) was 0.44 ± 0.19 µM, the IC50 (Cancer cell lines; [1]) was 3.94 ± 3.26 µM and the IC50 (Cancer cell lines; [2]) was 6.25 ± 3.68 µM. It also gave an IC50 (Cancer cell lines; [3]) of 0.47 ± 0.06 µM, an IC50 (Cancer cell lines; with the exception of SNU-387 and NCI-H1299, read-out: range of IC50 values for cancer cell lines) of 0.26 to 6.5 µM and an IC50 (SK-BR-3) of 2.16 ± 1.59 µM. The IC50 (primary human cells; [4]) was 6.8 ± 1.67 µM, the IC50 (primary human cells; [5]) was 4 to 10.9 µM and the IC50 (SCC-25) was 1.63 ± 0.78 µM. It also gave an IC50 (A253) of 0.54 ± 0.4 µM.
